The source of these data is ChEMBL document CHEMBL3507680, “University of Dundee, Gates Library screen for HepG2 cell viability”.

SMILES strings stand for the structures.

The data set in a line: Human HepG2 cell viability assay in 384 well format. It is filed as toxicity, cell-based. The arrangement: dose 125 nL, time 70.5 hour; concentration not given beside the values. Particulars: HepG2 cells, read-out: Inhibition.
`CC1c2ncc(Cn3cncn3)n2CCN1C(=O)c1cscn1` (configuration not stated): the cytotoxicity at 70.5 h was 20.8%. The result for `COCCN1Cc2ccccc2C2(CCN(S(C)(=O)=O)CC2)C1` reads -5.3%; that for `O=C(C1CCOC1)N1CCN(Cc2ccncc2)c2ncccc2C1` (configuration not stated), -9.12%; that for `O=C(c1cnccn1)N1CCC2(CCN(Cc3ccsc3)CC2)CC1`, -2.48%. The result for `O=C(c1cnccn1)N1CCC2(CCN(Cc3ccsc3)C2)CC1` reads -5.07%; that for `O=C(N1CCCO1)[C@@]12CCO[C@@H]1CCN(Cc1ccsc1)C2`, -6.2%; that for `Cc1cnc(N2CCc3c(CN(C)Cc4ccco4)cncc3C2)nc1`, -5.82%. The result for `Cc1occc1C(=O)N1CCn2c(Cn3cncn3)cnc2C1C` (configuration not stated) reads 50.5%. For `Cc1nc(CN2C(=O)CCC23CCN(c2ncccc2C)CC3)cs1`, the cytotoxicity at 70.5 h is 33.3%. The result for `CCOCC1CN(C(=O)c2ccco2)Cc2cnn(C)c21` (configuration not stated) reads -2.81%. In the case of `CS(=O)(=O)N[C@H]1COC[C@@H]2CN(Cc3ccco3)C[C@@H]21` it was -5.39%. Take `CCC(C)N1CCc2nc(N3CCCC3)nc(NC(C)C)c2C1` (configuration not stated): the cytotoxicity at 70.5 h was -7.15%.

Consider `CC(C)CCN1C2(CCN(C(=O)N(C)C)C2)c2ccccc2S1(=O)=O` (configuration not stated), for which the cytotoxicity at 70.5 h is -17.2%. On to `COCC1c2nnn(CC3CC3)c2CCN1C(=O)Cc1cccs1` (configuration not stated), for which the cytotoxicity at 70.5 h is -8.15%.

Regarding `CCC(=O)N1CCC2(CC1)COc1ccccc1S(=O)(=O)N(C)C2`, the cytotoxicity at 70.5 h was -14.6%. The result for `Cc1ncsc1CN1C[C@@H](OCC2CC2)[C@H]2OCCC[C@H]21` reads -5.13%; that for `Cc1noc(C2CCC3(CCN(C(=O)C4=CCCCC4)CC3)O2)n1` (configuration not stated), -6.87%. On to `CCn1ncc2c1C(COC)CN(Cc1ccc(OC)cc1)C2` (configuration not stated), for which the cytotoxicity at 70.5 h is -5.26%. The result for `CCC(=O)N1CCC2(COCc3c(C)nc(N(C)C)nc32)C1` (configuration not stated) reads 20.3%.

For the compound `CCOCc1ncn2c1CN(C(=O)Nc1cccc(C)c1)CC2`, the cytotoxicity at 70.5 h was -6.82%. For the compound `Cc1ccc(N2CC[C@H](OCC3CC3)[C@@H]2Cc2cnn(C)c2)nn1`, the cytotoxicity at 70.5 h worked out at 0.692%. Regarding `O=C(C1=CCCC1)N1C[C@H](Oc2cccnc2)[C@H]2OCCC[C@H]21`, the cytotoxicity at 70.5 h is -4.92%. The result for `O=C(c1ccnnc1)N1C[C@H](Oc2cccnc2)[C@H]2OCCC[C@H]21` reads 3.85%.

As to `O=C(c1ccc[nH]1)N1C[C@H](OCc2cccnc2)[C@H]2COC[C@H]21`, the cytotoxicity at 70.5 h was determined as 5.01%. The result for `Cc1cccc(CN2CC3(CCNCC3)OCC2=O)n1` reads 0.469%. In the case of `CN(C)c1ncc(-c2cc(C(=O)O)n(CC3CC3)c2)cn1` it was -4.19%; in that of `CC(C)(C)CC(=O)N1CC[C@@H]2[C@H](CC1)N(S(C)(=O)=O)CCS2(=O)=O`, -5.98%. In the case of `CS(=O)(=O)N1Cc2nccn2CC(Cn2ncccc2=O)C1` (configuration not stated) it was 3.97%. Consider `O=C(c1ccccn1)N1Cc2nccn2CC(COc2cccnc2)C1` (configuration not stated), for which the cytotoxicity at 70.5 h is 22.8%. For the compound `CC1c2ncc(Cn3cncn3)n2CCN1C(=O)C1CCOCC1` (configuration not stated), the cytotoxicity at 70.5 h was -2.59%.

`COCC(=O)N1CC[C@H]2C[C@@H](c3nnc(C4CC4)o3)O[C@@H]2C1`: the cytotoxicity at 70.5 h is 5.55%. Regarding `CN(Cc1ccccn1)C1COC2(CCN(Cc3nccs3)CC2)C1` (configuration not stated), the cytotoxicity at 70.5 h turned out to be 15.3%. The result for `Cn1cccc1C(=O)N1CCN(CC2CC2)c2ncccc2C1` reads 2.74%. In the case of `Cn1cccc1C(=O)N1CCc2ncc(Cn3cccn3)n2CC1` it was 16.9%. In the case of `CCNC(=O)c1nc2c(s1)CCCN2S(C)(=O)=O` it was 28.7%; in that of `FC(F)(F)c1cc(N2CCc3ncnc(NC4CC4)c3CC2)ncn1`, 5.67%. As to `CN(C)CC(=O)N1CCOCC2(C1)CN(c1ccccc1)C(=O)CO2` (configuration not stated), the cytotoxicity at 70.5 h was -45.3%.

For `Cc1nc(CN2C[C@@H]3OCCN(c4ncc(F)cn4)[C@@H]3C2)cs1`, the cytotoxicity at 70.5 h is -11.3%.

Regarding `COCCN1CCN(C(=O)C2CC=CC2)Cc2cccnc21`, the cytotoxicity at 70.5 h was -12%. In the case of `COCCN1C(=O)[C@]2(CC[C@@H]3CN(C(=O)NC4CCCC4)C[C@@H]32)N=C1C` it was -14.1%. The result for `CN1CCC(c2cnc(NCc3nccn3C)cn2)CC1` reads 17.9%.

As to `CCCn1nccc1-c1nccnc1CC1CCN(C(C)=O)C1` (configuration not stated), the cytotoxicity at 70.5 h was -2.05%. Regarding `Cc1nc(-c2ccc(CNS(=O)(=O)N(C)C)cc2)ccc1C(N)=O`, the cytotoxicity at 70.5 h was -2.19%. In the case of `CC(C)C(=O)N1CCC(c2c(C(N)=O)sc3ccccc23)C1` (configuration not stated) it was 18.5%. In the case of `COCC(=O)N1CCCC(c2nc(N)ncc2-c2cccc(F)c2)C1` (configuration not stated) it was 2.19%; in that of `CN(C)S(=O)(=O)N1CCC(c2ccnc(Nc3ccccn3)n2)C1` (configuration not stated), -0.703%. The result for `CN(C)c1cc(C2CCCN(C(=O)c3noc4c3CCCC4)C2)ccn1` (configuration not stated) reads -1.31%. Regarding `O=C(c1noc2c1CCCC2)N1CCCC(c2nccs2)C1` (configuration not stated), the cytotoxicity at 70.5 h was -3.76%.

On to `Cc1cc(C)n(-c2nc(C(=O)NCCS(=O)(=O)N3CCCCC3)cs2)n1`, for which the cytotoxicity at 70.5 h was -2.01%. As to `O=C(NCC1CCOCC1)c1cc(-c2ccncc2)c2cnccc2n1`, the cytotoxicity at 70.5 h is -2.01%.

Regarding `CC(=O)Nc1ccc(CCC2(NC(=O)C3CCCO3)CCCCC2)cn1` (configuration not stated), the cytotoxicity at 70.5 h was -0.834%.

`Cc1nc(C(=O)N2CCC(c3cc(CCO)n(C)n3)C2)co1` (configuration not stated): the cytotoxicity at 70.5 h amounted to 16.6%.

For the compound `Cc1ccc(C(=O)N2CCc3c(CNS(C)(=O)=O)cncc3C2)o1`, the cytotoxicity at 70.5 h came out at 0.323%. In the case of `CCS(=O)(=O)N1CCc2c(CN(C)Cc3ccco3)cncc2C1` it was -6.14%. `Cc1ccc(CN2CCC3(CC2)CN(C(=O)c2cnccn2)CCO3)o1`: the cytotoxicity at 70.5 h was -6.5%. In the case of `c1cnc(N2C[C@@H]3COC[C@]3(COCC3CCCC3)C2)nc1` it was -14.8%; in that of `CCc1ccc(CN2C[C@@H]3COC[C@H](NS(C)(=O)=O)[C@@H]3C2)o1`, -18.1%. The result for `CN(C)C(=O)COC[C@]12COC[C@H]1CN(CC1CCC1)C2` reads -6.61%. Regarding `O=C(c1ccoc1)N1CC[C@H]2OCC[C@@]2(COc2ncccc2F)C1`, the cytotoxicity at 70.5 h is -9.01%. In the case of `CCS(=O)(=O)N1C[C@H]2CN(Cc3cccnc3)C(=O)[C@H]2C1` it was 16.7%; in that of `CC(C)CNC(=O)[C@H]1CCS(=O)(=O)[C@@H]2CN(Cc3cccc(Cl)c3)C[C@H]12`, 24.3%. `c1nc2c(c(-c3ccsc3)n1)CCN(Cc1ccoc1)CC2`: the cytotoxicity at 70.5 h was determined as 19.3%. The result for `CN(C)C(=O)[C@@H]1CCO[C@@H]2CCN(Cc3ccccc3)C[C@@H]21` reads -3.08%; that for `CC1c2ncc(Cn3cncn3)n2CCN1C1CCOCC1` (configuration not stated), 2.73%.

With `N#Cc1ccc(C(=O)N2CCn3c(Cn4cccn4)cnc3C2)cc1`, the cytotoxicity at 70.5 h came to 7.14%. In the case of `O=C1CC(c2ccccc2)C2(CCN(CC3CC3)CC2)N1` (configuration not stated) it was -5.14%. The result for `O=C(NCc1ccco1)[C@H]1C[C@@H]2CCN(c3ccncn3)C[C@@H]2O1` reads -5.88%. In the case of `Fc1ccc(CN2CCO[C@H]3[C@H](OCC4CC4)CC[C@@H]32)cc1` it was -4.72%; in that of `CCN1CCC2(CC1)CC(NC(=O)N(C)C)c1cc(C)ccc12` (configuration not stated), 1.47%; in that of `Cn1nccc1-c1ccc2nc(C3CCN(CCO)CC3)nn2c1`, -2.61%. Regarding `O=C(N1CCCO1)[C@@]12CCO[C@@H]1CCN(C1CCCCC1)C2`, the cytotoxicity at 70.5 h amounted to 14%. `Cc1ccc(CN2C[C@@H]3COC[C@H](NS(C)(=O)=O)[C@@H]3C2)o1`: the cytotoxicity at 70.5 h was -12.4%. The result for `Cc1nc(N2CCOCC2)nc2c1CCN(Cc1cccnc1)CC2` reads -17.8%; that for `COCCN1C[C@@H](C)[C@@]2(COCCN(C(=O)c3cnc(C)cn3)C2)C1`, -5.26%. The result for `CC(=O)N1CCOCC2(CCN(Cc3ccc(C)s3)CC2)C1` reads -4.66%.

As for `Cc1ncnc2c1CCN(Cc1cccs1)CC2`, the cytotoxicity at 70.5 h is 22.9%. The result for `O=C(NC1CC1)[C@H]1C[C@H]2OCC[C@H]2N(CC2CC2)C1` reads 13.9%; that for `Cc1nc(CN2CCC3(CCN(Cc4nccn4C)CC3)C2=O)cs1`, -7.58%.

Take `CC1c2ncc(CNC(=O)C3CC3)n2CCN1Cc1ccncc1` (configuration not stated): the cytotoxicity at 70.5 h is -16.1%. Turning to `Cn1cnc2c1C(COCC1CC1)CN(Cc1ccc3c(c1)OCO3)C2` (configuration not stated), the cytotoxicity at 70.5 h turned out to be 36.5%.

Take `CN1[C@H](Cn2cncn2)C[C@@H]2CN(Cc3cccc(C#N)c3)CC[C@@H]21`: the cytotoxicity at 70.5 h was -6.46%.

Take `Cc1cccc(C(=O)N2C[C@@H]3OCCN(c4ncccn4)[C@@H]3C2)n1`: the cytotoxicity at 70.5 h was 2.67%. The result for `O=C1CC[C@@H]2[C@@H](CCN2Cc2ccncc2)N1c1ccccc1` reads 4.02%; that for `Cn1cccc1C(=O)N1CCN(Cc2ccncc2)c2ncccc2C1`, -7.79%.

In the case of `Fc1ccc(CN2CCO[C@H]3[C@H](OCCN4CCCC4)CC[C@@H]32)cc1`, the cytotoxicity at 70.5 h was -5.14%. In the case of `COCC1c2c(cnn2CC2CC2)CCN1Cc1cccs1` (configuration not stated) it was -2.83%; in that of `Cn1cc(CN2CC[C@H]3CO[C@H](CNc4ncccn4)[C@H]3C2)cn1`, 20.3%. In the case of `Cn1cc(CN2C[C@@H]3COC[C@]3(C(=O)NCc3ccccn3)C2)cn1` it was -17.5%; in that of `COCc1cnc2n1CCN(Cc1cccnc1)C2C` (configuration not stated), -17.6%; in that of `CO[C@H]1CCN(S(=O)(=O)c2cn(C)cn2)[C@H]1Cc1cccnc1`, -22.4%. In the case of `O=C(NCC1CC1)C1CN(Cc2ccncc2)Cc2ccnn2C1` (configuration not stated), the cytotoxicity at 70.5 h is -11.9%. In the case of `CN(Cc1cccnc1)[C@@H]1CN(CC2CC2)[C@@H]2CCCO[C@H]12` it was -2.78%.
